Test results published in EP2368549A1, “Treating hand-foot syndrome and related pathologies using clonidine or its derivatives” (BioAlliance Pharma, priority 2010, dated 2011).

Tests used:
[1] = clinical trials of breast or colorectal cancer; cited from earlier work
[2] = system: TNFα; settings: culture supernatant, 24h after substance P addition; clonidine treatment before and during substance P stimulation (topical formulations 0.05%-1% on the epidermis)
From the text: (§1) Human biopsy samples of clinically healthy human skin were obtained from patients undergoing plastic surgery. All patients gave their written informed consent before the surgery has carried out.
(§2) Skin biopsies were cut into 1 cm2 full thickness pieces and washed three times with antibiotics. Subcutaneous fat and lower dermis were mechanically removed. Skin fragments were transferred onto permeable polycarbonate membrane transwells (12 mm diameter, 12 µm pore size) in a well of 12 well plate (as previously described Boisnic S. et al., [1-3]) containing 700µl of defined medium (DMEM, antibiotics, hormones, pituitary extract, FCS). Explants were maintained at the interface between air and medium with the epithelium uppermost and the dermis exposed to the media by diffusion through the porous membrane.
(§3) Cohesion between skin fragments and inserts was obtained with a polyvinylsiloxane addition type silicone elastomer seal (coltène® president) in such a way that no skin retraction or lateral passage of the product towards the dermis was possible.
(§4) The culture was set up for 36 hours in a humidified atmosphere containing 5% CO2 at 37°C, and medium was daily change, culture supernatants were frozen at -80°C until further analysis.
The stimulation of the experimental oral human skin inflammatory process was done by the neuropeptide substance P (SP) [1]. […]

[3] = system: human skin organotypic culture; settings: histology of papillary and upper reticular dermis, 24h after substance P addition; clonidine treatment before and during substance P stimulation
From the text: as §1, §2, §3, §4
At the end of culture all human skin fragments were formalin fixed and paraffin embedded. […]

Structure (SMILES)	overall incidence of HFS [1]	patients reporting a severe form (grade 3) of HFS [1] [%]	proinflammatory cytokines TNFα level [2]	skin oedema [3]	vasodilatation [3]
CCCCCOC(=O)Nc1nc(=O)n([C@@H]2O[C@H](C)[C@@H](O)[C@H]2O)cc1F [capecitabine, N4-pentyloxycarbonyl-5'-deoxy-5-fluorocytidine]	around 50%	17			
Clc1cccc(Cl)c1NC1=NCCN1 [clonidine, N-(2,6-dichlorophenyl)-4,5-dihydro-1H-imidazol-2-amine]			decrease	decrease	decrease
